Data published in ChEMBL document CHEMBL1629710, “Synthesis and biological evaluation of N-substituted-3,5-diphenyl-2-pyrazoline derivatives as cyclooxygenase (COX-2) inhibitors” (Eur J Med Chem, 2010).
Active and inactive are the calls of the source. The rule behind the calls is not given here.

Key:
[1] = target: Prostaglandin G/H synthase 1 (Homo sapiens) (UniProt P23219); test: Inhibition of human COX1 from platelet microsomes
[2] = target: T1, Prostaglandin G/H synthase 2 (Homo sapiens, UniProt P35354); test: Inhibition of human recombinant COX2 expressed in baculovirus infected SF21 cell; format: cell-based
T1 sequence (P35354 whole entry): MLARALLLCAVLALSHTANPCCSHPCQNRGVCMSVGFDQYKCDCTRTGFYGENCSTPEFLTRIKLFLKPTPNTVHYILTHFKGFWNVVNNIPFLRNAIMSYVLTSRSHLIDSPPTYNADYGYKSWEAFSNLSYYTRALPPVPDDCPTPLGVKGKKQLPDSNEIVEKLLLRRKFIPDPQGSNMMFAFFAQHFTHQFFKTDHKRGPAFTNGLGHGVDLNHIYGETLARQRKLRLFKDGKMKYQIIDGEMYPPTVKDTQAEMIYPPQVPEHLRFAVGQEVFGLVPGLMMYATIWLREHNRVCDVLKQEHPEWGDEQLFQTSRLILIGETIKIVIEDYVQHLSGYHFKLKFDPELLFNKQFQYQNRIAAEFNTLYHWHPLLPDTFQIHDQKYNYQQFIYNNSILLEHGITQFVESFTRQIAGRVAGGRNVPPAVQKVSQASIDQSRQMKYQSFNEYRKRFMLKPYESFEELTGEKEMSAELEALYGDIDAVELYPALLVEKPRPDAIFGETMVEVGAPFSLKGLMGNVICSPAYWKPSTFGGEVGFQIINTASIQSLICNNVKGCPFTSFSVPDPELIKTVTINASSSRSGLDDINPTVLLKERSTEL

[3] = target: T2, Prostaglandin G/H synthase 2 (Homo sapiens) (UniProt P35354); test: Inhibition of human recombinant COX2 expressed in baculovirus infected SF21 cell at 100 uM
T2 sequence (whole entry): T1 sequence (P35354 whole entry)

[4] = target: T2, Prostaglandin G/H synthase 2 (Homo sapiens); test: Inhibition of human recombinant COX2 expressed in baculovirus infected SF21 cell at 25 uM

Chain of Prostaglandin G/H synthase 1 (Homo sapiens) (P23219 whole entry): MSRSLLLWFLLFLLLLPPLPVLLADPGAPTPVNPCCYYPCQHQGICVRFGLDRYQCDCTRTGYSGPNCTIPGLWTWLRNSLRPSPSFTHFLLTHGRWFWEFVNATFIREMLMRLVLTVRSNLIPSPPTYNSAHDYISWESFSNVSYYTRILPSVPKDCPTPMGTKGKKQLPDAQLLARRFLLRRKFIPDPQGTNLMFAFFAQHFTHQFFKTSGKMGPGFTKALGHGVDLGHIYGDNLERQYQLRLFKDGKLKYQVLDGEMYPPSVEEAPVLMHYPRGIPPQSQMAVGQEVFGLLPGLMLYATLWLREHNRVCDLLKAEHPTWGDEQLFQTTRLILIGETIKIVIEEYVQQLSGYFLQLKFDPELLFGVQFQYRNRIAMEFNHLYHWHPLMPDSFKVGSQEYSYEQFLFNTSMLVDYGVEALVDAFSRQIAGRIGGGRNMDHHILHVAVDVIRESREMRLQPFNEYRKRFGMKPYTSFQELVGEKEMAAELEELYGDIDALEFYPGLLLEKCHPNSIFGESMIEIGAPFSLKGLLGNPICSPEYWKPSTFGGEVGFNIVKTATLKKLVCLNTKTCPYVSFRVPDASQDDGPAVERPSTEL

| SMILES | inhibition [1] | IC50 [2] [µM] | inhibition [3] | inhibition [4] |
| --- | --- | --- | --- | --- |
| CC(=O)N1N=C(c2ccc(S(C)(=O)=O)cc2)CC1c1ccc(F)cc1 (stereo unspecified) | inactive | 19.6 |  |  |
| CS(=O)(=O)c1ccc(C2=NN(C(N)=S)C(c3ccc(F)cc3)C2)cc1 (stereo unspecified) | inactive |  | inactive |  |
| CC(=O)N1N=C(c2ccc(S(C)(=O)=O)cc2)CC1c1ccc(OCc2ccccc2)cc1 (stereo unspecified) | inactive |  | inactive |  |
| CS(=O)(=O)c1ccc(C2=NN(C(N)=S)C(c3ccc(OCc4ccccc4)cc3)C2)cc1 (stereo unspecified) | inactive |  |  | inactive |
| CS(=O)(=O)c1ccc(C2=NN(C(N)=S)C(c3ccccc3OCc3ccccc3)C2)cc1 (stereo unspecified) | inactive |  |  | inactive |
| CC(=O)N1N=C(c2ccc(S(C)(=O)=O)cc2)CC1c1cccc(OCc2ccccc2)c1 (stereo unspecified) | inactive |  | inactive |  |
| CC(=O)N1N=C(c2ccc(S(C)(=O)=O)cc2)CC1c1ccccc1OCc1ccccc1 (stereo unspecified) | inactive | 3.2 |  |  |
| CS(=O)(=O)c1ccc(C2=NN(C(N)=S)C(c3cccc(OCc4ccccc4)c3)C2)cc1 (stereo unspecified) | inactive |  |  | inactive |
| CC(=O)N1N=C(c2ccc(S(C)(=O)=O)cc2)CC1c1ccccc1 (stereo unspecified) | inactive |  | inactive |  |
| CC(=O)N1N=C(c2ccc(S(C)(=O)=O)cc2)CC1c1ccc(C(F)(F)F)cc1 (stereo unspecified) | inactive | 19.8 |  |  |
| Cc1ccc(C2CC(c3ccc(S(C)(=O)=O)cc3)=NN2C(N)=S)cc1 (stereo unspecified) | inactive | 31.9 |  |  |
| COc1ccc(C2CC(c3ccc(S(C)(=O)=O)cc3)=NN2C(N)=S)cc1 (stereo unspecified) | inactive |  |  | inactive |
| CC(=O)N1N=C(c2ccc(S(C)(=O)=O)cc2)CC1c1ccc(C)cc1 (stereo unspecified) | inactive | 6.77 |  |  |
| CS(=O)(=O)c1ccc(C2=NN(C(N)=S)C(c3ccc(Cl)cc3)C2)cc1 (stereo unspecified) | inactive | 9.35 |  |  |
| CS(=O)(=O)c1ccc(C2=NN(C(N)=S)C(c3ccc(C(F)(F)F)cc3)C2)cc1 (stereo unspecified) | inactive |  |  | inactive |
| COc1ccc(C2CC(c3ccc(S(C)(=O)=O)cc3)=NN2C(C)=O)cc1 (stereo unspecified) | inactive | 7.61 |  |  |
| CC(=O)N1N=C(c2ccc(S(C)(=O)=O)cc2)CC1c1ccc(Cl)cc1 (stereo unspecified) | inactive | 21.7 |  |  |
| CS(=O)(=O)c1ccc(C2=NN(C(N)=S)C(c3ccccc3)C2)cc1 (stereo unspecified) | inactive | 50.3 |  |  |
